Laboratory results from patent US20130252988A1, “COMPOSITIONS AND METHODS FOR TREATING MYELOFIBROSIS” (TARGEGEN, INC., priority 2010, published 2013).
Entries after “also recorded” stand apart in the source; their conditions may differ. Counter-ions that a name gives are not always drawn. Like-named read-outs stand apart in the source and are kept apart here. Marks after values point to notes of the source that are not given here.

Tested on: subjects with myelofibrosis
Details: for Abdominal pain Severity Grade 1-2, subjects n (%) / Abdominal pain Severity Grade 3-4, subjects n (%) / Alanine aminotransferase increased Severity Grade 1-2, subjects n (%) / Alanine aminotransferase increased Severity Grade 3-4, subjects n (%) / Anorexia Severity Grade 1-2, subjects n (%) / Anorexia Severity Grade 3-4, subjects n (%) / Aspartate aminotransferase increased Severity Grade 1-2, subjects n (%) / Aspartate aminotransferase increased Severity Grade 3-4, subjects n (%) / Blood alkaline phosphatase increased Severity Grade 1-2, subjects n (%) / Blood alkaline phosphatase increased Severity Grade 3-4, subjects n (%) / Blood creatinine increased Severity Grade 1-2, subjects n (%) / Blood creatinine increased Severity Grade 3-4, subjects n (%) / Diarrhea Severity Grade 1-2, subjects n (%) / Diarrhea Severity Grade 3-4, subjects n (%) / Dry skin Severity Grade 1-2, subjects n (%) / Dry skin Severity Grade 3-4, subjects n (%) / Edema peripheral Severity Grade 1-2, subjects n (%) / Edema peripheral Severity Grade 3-4, subjects n (%) / Hyperlipasemia Severity Grade 1-2, subjects n (%) / Hyperlipasemia Severity Grade 3-4, subjects n (%) / Hypocalcemia Severity Grade 1-2, subjects n (%) / Hypocalcemia Severity Grade 3-4, subjects n (%) / Nausea Severity Grade 1-2, subjects n (%) / Nausea Severity Grade 3-4, subjects n (%) / Skin exfoliation Severity Grade 1-2, subjects n (%) / Skin exfoliation Severity Grade 3-4, subjects n (%) / Vomiting Severity Grade 1-2, subjects n (%) / Vomiting Severity Grade 3-4, subjects n (%): Table 9: AE at least possibly related to TG101348; for Neutropenia Severity Grade 1-2, subjects n (%) / Neutropenia Severity Grade 3-4, subjects n (%) / Thrombocytopenia Severity Grade 1-2, subjects n (%) / Thrombocytopenia Severity Grade 3-4, subjects n (%) / Anemia Severity Grade 1-2, subjects n (%) / Anemia Severity Grade 3-4, subjects n (%): Table 10: at least possibly related
[1] = Table 5: treatment-emergent non-hematologic laboratory finding, MTD subjects (N = 40)
[2] = All Subjects, not transfusion dependent at study entry (n = 37)
[3] = MTD Cohort, not transfusion dependent at study entry (n = 24)
[4] = overall, at least possibly related
[5] = subject 106-024, 800/680 mg/day, onset day 87, stopped temporarily, Recovered/resolved

Compound: Cc1cnc(Nc2ccc(OCCN3CCCC3)cc2)nc1Nc1cccc(S(=O)(=O)NC(C)(C)C)c1 [TG101348, N-tert-butyl-3-[(5-methyl-2-{[4-(2-pyrrolidin-1-ylethoxy)phenyl]amino}pyrimidin-4-yl)amino]benzenesulfonamide dihydrochloride monohydrate]
- Hyperkalemia Grade 4, subjects n (%) [1]: 1 (3%)
- Hyperlipasemia Grade 2, subjects n (%) [1]: 4 (10%)
- Hyperlipasemia Grade 3, subjects n (%) [1]: 3 (8%)
- Hyperlipasemia Grade 4, subjects n (%) [1]: 2 (5%)
- Hypocalcemia Grade 2, subjects n (%) [1]: 8 (20%)
- Hypocalcemia Grade 3, subjects n (%) [1]: 3 (8%)
- Hypocalcemia Grade 4, subjects n (%) [1]: 0
- Abdominal pain Severity Grade 1-2, subjects n (%) (All Subjects (n = 59)): 6 (10.2%)
- Abdominal pain Severity Grade 3-4, subjects n (%) (All Subjects (n = 59)): 0
- Alanine aminotransferase increased Severity Grade 1-2, subjects n (%) (All Subjects (n = 59)): 11 (18.6%)
- Alanine aminotransferase increased Severity Grade 3-4, subjects n (%) (All Subjects (n = 59)): 4 (6.8%)
- Anorexia Severity Grade 1-2, subjects n (%) (All Subjects (n = 59)): 8 (13.6%)
- Anorexia Severity Grade 3-4, subjects n (%) (All Subjects (n = 59)): 0
- Aspartate aminotransferase increased Severity Grade 1-2, subjects n (%) (All Subjects (n = 59)): 15 (25.4%)
- Aspartate aminotransferase increased Severity Grade 3-4, subjects n (%) (All Subjects (n = 59)): 1 (1.7%)
- Blood alkaline phosphatase increased Severity Grade 1-2, subjects n (%) (All Subjects (n = 59)): 10 (16.9%)
- Blood alkaline phosphatase increased Severity Grade 3-4, subjects n (%) (All Subjects (n = 59)): 0
- Blood creatinine increased Severity Grade 1-2, subjects n (%) (All Subjects (n = 59)): 14 (23.7%)
- Blood creatinine increased Severity Grade 3-4, subjects n (%) (All Subjects (n = 59)): 0
- Diarrhea Severity Grade 1-2, subjects n (%) (All Subjects (n = 59)): 32 (54.2%)
- Diarrhea Severity Grade 3-4, subjects n (%) (All Subjects (n = 59)): 6 (10.2%)
- Dry skin Severity Grade 1-2, subjects n (%) (All Subjects (n = 59)): 6 (10.2%)
- Dry skin Severity Grade 3-4, subjects n (%) (All Subjects (n = 59)): 0
- Edema peripheral Severity Grade 1-2, subjects n (%) (All Subjects (n = 59)): 6 (10.2%)
- Edema peripheral Severity Grade 3-4, subjects n (%) (All Subjects (n = 59)): 0
- Hyperlipasemia Severity Grade 1-2, subjects n (%) (All Subjects (n = 59)): 10 (16.9%)
- Hyperlipasemia Severity Grade 3-4, subjects n (%) (All Subjects (n = 59)): 6 (10.2%)
- Hypocalcemia Severity Grade 1-2, subjects n (%) (All Subjects (n = 59)): 7 (11.9%)
- Hypocalcemia Severity Grade 3-4, subjects n (%) (All Subjects (n = 59)): 1 (1.7%)
- Nausea Severity Grade 1-2, subjects n (%) (All Subjects (n = 59)): 39 (66.1%)
- Nausea Severity Grade 3-4, subjects n (%) (All Subjects (n = 59)): 2 (3.4%)
- Skin exfoliation Severity Grade 1-2, subjects n (%) (All Subjects (n = 59)): 8 (13.6%)
- Skin exfoliation Severity Grade 3-4, subjects n (%) (All Subjects (n = 59)): 0
- Vomiting Severity Grade 1-2, subjects n (%) (All Subjects (n = 59)): 32 (54.2%)
- Vomiting Severity Grade 3-4, subjects n (%) (All Subjects (n = 59)): 2 (3.4%)
- Abdominal pain Severity Grade 1-2, subjects n (%) (MTD Cohort (n = 40)): 4 (10.0%)
- Abdominal pain Severity Grade 3-4, subjects n (%) (MTD Cohort (n = 40)): 0
- Alanine aminotransferase increased Severity Grade 1-2, subjects n (%) (MTD Cohort (n = 40)): 9 (22.5%)
- Alanine aminotransferase increased Severity Grade 3-4, subjects n (%) (MTD Cohort (n = 40)): 3 (7.5%)
- Anorexia Severity Grade 1-2, subjects n (%) (MTD Cohort (n = 40)): 6 (15.0%)
- Anorexia Severity Grade 3-4, subjects n (%) (MTD Cohort (n = 40)): 0
- Aspartate aminotransferase increased Severity Grade 1-2, subjects n (%) (MTD Cohort (n = 40)): 13 (32.5%)
- Aspartate aminotransferase increased Severity Grade 3-4, subjects n (%) (MTD Cohort (n = 40)): 1 (2.5%)
- Blood alkaline phosphatase increased Severity Grade 1-2, subjects n (%) (MTD Cohort (n = 40)): 9 (22.5%)
- Blood alkaline phosphatase increased Severity Grade 3-4, subjects n (%) (MTD Cohort (n = 40)): 0
- Blood creatinine increased Severity Grade 1-2, subjects n (%) (MTD Cohort (n = 40)): 11 (27.5%)
- Blood creatinine increased Severity Grade 3-4, subjects n (%) (MTD Cohort (n = 40)): 0
- Diarrhea Severity Grade 1-2, subjects n (%) (MTD Cohort (n = 40)): 25 (62.5%)
- Diarrhea Severity Grade 3-4, subjects n (%) (MTD Cohort (n = 40)): 5 (12.5%)
- Dry skin Severity Grade 1-2, subjects n (%) (MTD Cohort (n = 40)): 6 (15%)
- Dry skin Severity Grade 3-4, subjects n (%) (MTD Cohort (n = 40)): 0
- Edema peripheral Severity Grade 1-2, subjects n (%) (MTD Cohort (n = 40)): 4 (10.0%)
- Edema peripheral Severity Grade 3-4, subjects n (%) (MTD Cohort (n = 40)): 0
- Hyperlipasemia Severity Grade 1-2, subjects n (%) (MTD Cohort (n = 40)): 9 (22.5%)
- Hyperlipasemia Severity Grade 3-4, subjects n (%) (MTD Cohort (n = 40)): 6 (15.0%)
- Hypocalcemia Severity Grade 1-2, subjects n (%) (MTD Cohort (n = 40)): 6 (15.0%)
- Hypocalcemia Severity Grade 3-4, subjects n (%) (MTD Cohort (n = 40)): 1 (2.5%)
- Nausea Severity Grade 1-2, subjects n (%) (MTD Cohort (n = 40)): 31 (77.5%)
- Nausea Severity Grade 3-4, subjects n (%) (MTD Cohort (n = 40)): 2 (5.0%)
- Skin exfoliation Severity Grade 1-2, subjects n (%) (MTD Cohort (n = 40)): 8 (20.0%)
- Skin exfoliation Severity Grade 3-4, subjects n (%) (MTD Cohort (n = 40)): 0
- Vomiting Severity Grade 1-2, subjects n (%) (MTD Cohort (n = 40)): 27 (67.5%)
- Vomiting Severity Grade 3-4, subjects n (%) (MTD Cohort (n = 40)): 1 (2.5%)
- Neutropenia Severity Grade 1-2, subjects n (%) (All Subjects (n = 59)): 2 (3.4%)
- Neutropenia Severity Grade 3-4, subjects n (%) (All Subjects (n = 59)): 6 (10.2%)
- Thrombocytopenia Severity Grade 1-2, subjects n (%) (All Subjects (n = 59)): 10 (17.0%)
- Thrombocytopenia Severity Grade 3-4, subjects n (%) (All Subjects (n = 59)): 14 (23.7%)
- Anemia Severity Grade 1-2, subjects n (%) [2]: 3 (8.1%)
- Anemia Severity Grade 3-4, subjects n (%) [2]: 13 (35.1%)
- Neutropenia Severity Grade 1-2, subjects n (%) (MTD Cohort (n = 40)): 2 (5.0%)
- Neutropenia Severity Grade 3-4, subjects n (%) (MTD Cohort (n = 40)): 4 (10.0%)
- Thrombocytopenia Severity Grade 1-2, subjects n (%) (MTD Cohort (n = 40)): 8 (20.0%)
- Thrombocytopenia Severity Grade 3-4, subjects n (%) (MTD Cohort (n = 40)): 11 (27.5%)
- Anemia Severity Grade 1-2, subjects n (%) [3]: 2 (8.3%)
- Anemia Severity Grade 3-4, subjects n (%) [3]: 13 (54.2%)
- Grade 3/4 neutropenia considered related to TG101348, subjects (all subjects): 10%
- Grade 3/4 thrombocytopenia considered related to TG101348, subjects (all subjects): 24%
- Dose-limiting toxicity (DLT) (at 800 mg/day, dihydrochloride monohydrate): asymptomatic grade 3 or 4 amylasemia/lipasemia that was reversible; also recorded: asymptomatic grade 3 or 4 hyperamylasemia (with or without hyperlipasemia) that was reversible
- Safety findings with continued dosing beyond 6 cycles (at data cutoff, extension study): no unique safety findings have emerged
- Cytokine rebound upon discontinuation of TG101348 (discontinued without prior dose reduction or tapering, dihydrochloride monohydrate): absence of immediate adverse cytokine-rebound phenomenon; also recorded: did not experience “cytokine rebound”
- Discontinuation because of adverse events during the extension study, number of subjects (following a total of 24 to 46 weeks on therapy): 3
- Subjects with disease progression (hepatosplenomegaly/ascites, accelerated myelofibrosis, leukemic transformation): Three
- Emergence of transfusion requirement, subjects (initiated treatment at 680 mg/day): 72%
- Emergence of transfusion requirement, subjects (initiated treatment at 240-520 mg/day): 33%
- Grade 3/4 anemia considered related to TG101348, subjects (of 37 subjects not transfusion dependent at baseline): 35%
- Maximum tolerated dose (MTD) (oral once daily, dose escalation 30 to 800 mg/day): 680 mg/day
- Grades 3/4 asymptomatic increase in ALT, subjects (overall): 7%
- Grades 3/4 asymptomatic increase in AST, subjects (overall): 2%
- Grades 3/4 asymptomatic increase in serum lipase, subjects (overall): 10%
- Grades 3/4 increase in alkaline phosphatase, subjects (overall): 0%
- Grades 3/4 increase in creatinine, subjects (overall): 0%
- Grade 4 nausea, diarrhea and vomiting (overall and MTD cohort): no Grade 4 events
- Grade 3 diarrhea, subjects [4]: 10%
- Grade 3 nausea, subjects [4]: 3%
- Grade 3 vomiting, subjects [4]: 3%
- Tolerability (patients with myelofibrosis, dihydrochloride monohydrate): generally well tolerated
- Serious adverse event Neutropenia: CTCAE Severity Grade (subject 101-047, 680/680 mg/day, onset day 52, stopped temporarily, Recovered/resolved): 2
- Serious adverse event Depression: CTCAE Severity Grade (subject 104-015, 360/520 mg/day, onset day 256, permanently discontinued, Not recovered/not resolved, died (suicide) approximately 12 weeks after discontinuation): 3*
- Serious adverse event Hyperlipasemia: CTCAE Severity Grade (subject 105-013, 240/0 mg/day, onset day 356, action none, Recovered/resolved): 4
- Serious adverse event Thrombocytopenia: CTCAE Severity Grade (subject 105-013, 240/360 mg/day, onset day 247, permanently discontinued, Not recovered/not resolved): 4
- Serious adverse event Thrombocytopenia: CTCAE Severity Grade (subject 105-013, starting dose/dose at event 240/360 mg/day, onset day 215, action none, Recovered/resolved): 4
- Serious adverse event Gallbladder pain: CTCAE Severity Grade (subject 105-056, 680/520 mg/day, onset day 95, stopped temporarily, Recovered/resolved with sequelae): 3
- Serious adverse event Cerebrovascular accident: CTCAE Severity Grade (subject 105-056, 680/680 mg/day, onset day 22, stopped temporarily, Recovered/resolved): 4
- Serious adverse event Cardiac arrest: CTCAE Severity Grade (subject 105-059, 680/360 mg/day, onset day 42, permanently discontinued, Fatal): 5
- Serious adverse event Hyperlipasemia: CTCAE Severity Grade (subject 105-059, 680/520 mg/day, onset day 28, stopped temporarily, Recovered/resolved): 3
- Serious adverse event Hyperlipasemia: CTCAE Severity Grade (subject 105-059, 680/680 mg/day, onset day 8, stopped temporarily, Recovered/resolved): 3
- Serious adverse event Dehydration: CTCAE Severity Grade (subject 106-024, 800/400 mg/day, onset day 474, action none, Recovered/resolved): 3
- Serious adverse event Tumor lysis syndrome: CTCAE Severity Grade (subject 106-024, 800/440 mg/day, onset day 366, stopped temporarily, Recovered/resolved): 3
- Serious adverse event Dehydration: CTCAE Severity Grade [5]: 2
- Serious adverse event Diarrhea: CTCAE Severity Grade [5]: 3
- Serious adverse event Nausea: CTCAE Severity Grade [5]: 2
- Serious adverse event Vomiting: CTCAE Severity Grade [5]: 2
- Serious adverse event Pleuritic pain: CTCAE Severity Grade (subject 106-033, 680/680 mg/day, onset day 8, stopped temporarily, Recovered/resolved): 2
- Serious adverse event Dehydration: CTCAE Severity Grade (subject 106-045, 680/440 mg/day, onset day 170, stopped temporarily, Recovered/resolved): 3
